pIC50: −log10 of the molar value. Where a name gives a salt, the structure may show the parent alone. Read-outs that look alike come from different tables or passages of the source. Where only a bound is given, the exact number is not on record here.

In one data set the test system is A431 cells. In words: Cellular growth inhibition (sulforhodamine B). The note with it: for pIC50: Homo sapiens.
Another data set deals with SW620 cells. In words: Cellular growth inhibition (sulforhodamine B). In kind it is cell-based, Human. The note with it: Table 3; for pIC50: Homo sapiens, SW-620.
Another data set deals with SKBR3 cells. Briefly: Cellular growth inhibition (sulforhodamine B). In kind it is cell-based, Human. The note with it: Table 3; for pIC50: Homo sapiens, SK-BR-3.
Another data set deals with erbB1 (Homo sapiens, UniProt P00533). In words: Inhibition of erbB1 autophosphorylation in EGF-stimulated intact A431 cells (Western blot).
Chain of erbB1 (P00533 25-1210): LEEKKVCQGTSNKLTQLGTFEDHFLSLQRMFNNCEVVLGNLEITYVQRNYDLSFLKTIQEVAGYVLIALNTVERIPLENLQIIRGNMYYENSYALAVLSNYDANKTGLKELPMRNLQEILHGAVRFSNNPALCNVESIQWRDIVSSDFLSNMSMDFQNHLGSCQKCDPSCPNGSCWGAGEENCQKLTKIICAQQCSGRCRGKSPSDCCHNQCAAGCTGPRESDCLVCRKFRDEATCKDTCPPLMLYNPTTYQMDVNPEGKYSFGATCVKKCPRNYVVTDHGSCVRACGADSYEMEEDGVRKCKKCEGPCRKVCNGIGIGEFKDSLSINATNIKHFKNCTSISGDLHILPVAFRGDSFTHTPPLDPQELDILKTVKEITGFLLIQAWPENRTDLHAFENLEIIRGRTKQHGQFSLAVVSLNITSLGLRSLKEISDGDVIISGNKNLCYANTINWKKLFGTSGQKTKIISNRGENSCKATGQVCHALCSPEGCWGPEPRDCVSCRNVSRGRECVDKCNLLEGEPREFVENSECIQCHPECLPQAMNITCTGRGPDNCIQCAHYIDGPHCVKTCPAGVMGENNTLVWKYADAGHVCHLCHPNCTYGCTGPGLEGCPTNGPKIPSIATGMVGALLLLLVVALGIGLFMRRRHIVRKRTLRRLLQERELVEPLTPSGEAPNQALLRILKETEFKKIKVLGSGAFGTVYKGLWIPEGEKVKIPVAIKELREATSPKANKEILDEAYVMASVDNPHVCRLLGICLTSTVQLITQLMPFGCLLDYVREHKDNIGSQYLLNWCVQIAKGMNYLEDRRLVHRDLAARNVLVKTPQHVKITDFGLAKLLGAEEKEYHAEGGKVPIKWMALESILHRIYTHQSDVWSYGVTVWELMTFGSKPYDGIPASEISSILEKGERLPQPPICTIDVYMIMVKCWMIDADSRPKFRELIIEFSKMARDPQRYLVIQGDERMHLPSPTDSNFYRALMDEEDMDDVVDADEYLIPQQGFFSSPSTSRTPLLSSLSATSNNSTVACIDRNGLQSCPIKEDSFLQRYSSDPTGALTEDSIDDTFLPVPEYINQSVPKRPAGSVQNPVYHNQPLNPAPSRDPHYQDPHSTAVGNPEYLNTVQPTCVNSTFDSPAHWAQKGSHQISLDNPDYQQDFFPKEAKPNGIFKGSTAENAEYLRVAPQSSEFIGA
Data set [1] is described as follows: Pulse radiolysis (E(1) and fragmentation rate). Type of data set: physicochemical. The note with it: for kfrag. (fragmentation rate constant upon 1-electron reduction): benzyl-type radical formation; for E (1)/V (one-electron reduction potential): determined against methylviologen. The procedure:
Pulse radiolysis was used to monitor the 1-electron reduction and stability of the compounds in real time. A linear accelerator delivering short pulses of high energy electrons (2-3 Gy in 200 ns of 4 MeV) equipped with a fast spectophotometric detection system was used. (Anderson et al, J. Phys. Chem. A, 101, 9704-9709, 1997). […] The rate of fragmentation was determined by analysing kinetic transients at wavelengths corresponding to the formation of the benzyl-type radical of the trigger moiety. (Bays et al, J. Am. Chem. Soc., 105, 320-324, 1983; Anderson et al, J. Phys. Chem. A, 101, 9704-9709, 1997).
The pulse radiolysis method, for example, measures the equilibrium constant between the radical anions of the prodrugs, formed upon their 1-electron reduction, and reference standards such as viologen and quinone compounds, from which data the E(1) values of the compounds can be calculated. (Meisel and Czapski. J. Phys. Chem., 1975, 79, 1503-1509.) The E(1) values of prodrugs 17-22, 140-145 were measured by the pulse radiolysis method and determined to range between −0.493V and −0.388V (Table 4).
The rate constants for fragmentation, kfrag, of the 1-electron reduced prodrugs can be measured using pulse radiolysis to observe the time-resolved formation of the absorption spectrum of the benzyl-type radical produced upon fragmentation of the radical anion. (Anderson et al, J. Phys. Chem. A, 1997, 101, 9704-9709.) The kfrag values of prodrugs 19, 20, 140, 141 and 143-145 were measured by pulse radiolysis and are presented in Table 4.
Pulse radiolysis was used to monitor the one-electron reduction and stability of prodrug 42 in real time. A linear accelerator delivering short pulses of high energy electrons (2-3 Gy in 200 ns of 4 MeV) equipped with a fast spectophotometric detection system was used. […] The rate of fragmentation was determined by analysing kinetic transients at wavelengths corresponding to the formation of the benzyl-type radical of the trigger moiety. (Bays et al, J. Am. Chem. Soc., 105, 320-324, 1983; Anderson et al, J. Phys. Chem. A, 101, 9704-9709, 1997.)

A further data set relates to HT29 cells. Briefly: Cellular growth inhibition (sulforhodamine B). In kind it is cell-based, Human. Conditions: Table 7; for pIC50: Homo sapiens, HT-29.
The test system of a further data set is H1975 cells. In words: Cellular growth inhibition (sulforhodamine B). Type of data set: cell-based, Human. Conditions: for pIC50: Homo sapiens, NCI-H1975.
Data set [2] can be described thus: Steady state radiolytic reduction by the CO2.− radical with HPLC-MS. In kind it is physicochemical. Conditions: for Detection of MNA (methyl nitroaromatic) / release of effector following 1-electron reduction: HPLC-MS; for % Loss of prodrug: HPLC-MS at 0.95 reducing equivalents; for release of effector following 1-electron reduction: steady state radiolysis.
The subject of a further data set is SKOV3 cells. Briefly: Cellular growth inhibition (sulforhodamine B). In kind it is cell-based, Human. The note with it: Table 9; for pIC50: Homo sapiens, SK-OV-3.
The mark [3] stands for this setting: A-431, 24 h, read-out: Cellular Growth Inhibition IC50 A431 Oxic.
[4] abbreviates: A-431, read-out: Cellular Growth Inhibition IC50 A431 Anoxic.
Setting [5] is: 24 hour exposure entirely oxic, read-out: Cellular Growth Inhibition IC50 SW620 Oxic.
Where [6] appears, read: first 4 hours anoxic, read-out: Cellular Growth Inhibition IC50 SW620 Anoxic.
The mark [7] stands for this setting: 24 hour exposure entirely oxic, read-out: Cellular Growth Inhibition IC50 SKBR3 Oxic.
The mark [8] stands for this setting: first 4 hours anoxic, read-out: Cellular Growth Inhibition IC50 SKBR3 Anoxic.
[9] abbreviates: A-431, 4 h, read-out: Cellular Growth Inhibition IC50 A431 Anoxic.
The mark [10] stands for this setting: 24 hour exposure oxic, read-out: Cellular Growth Inhibition IC50 HT29 Oxic.
Where [11] appears, read: initial 4 hours anoxic, read-out: Cellular Growth Inhibition IC50 HT29 Anoxic.
Where [12] appears, read: Table 7, 24 hour exposure oxic, read-out: Cellular Growth Inhibition IC50 H1975 Oxic.
Where [13] appears, read: Table 7, initial 4 hours anoxic, read-out: Cellular Growth Inhibition IC50 H1975 Anoxic.

Experimental for HT29 cells: (§1) Human A431, BT474, SKBR3, SKOV3, SW620, H1975 and HT29 carcinoma cells in log phase exponential growth in alpha minimal essential media (αMEM) containing 5% fetal bovine serum (FBS), were harvested by trypsinisation (1× trypsin/EDTA, Gibco Brl), counted, and seeded into 96 well plates (Nunc) at cell densities ranging from 800-1500 cells/well. Half of the cell samples were seeded into plates that were pre-equilibrated and held in an anoxic environment (90% N2, 5% H2, 5% CO2, 37° Q Anaerobic chamber, Coy Laboratory Products). […] At the end of this period the anoxic plates were recovered from the anaerobic camber and held under normoxia in a standard CO2 incubator (37° C.) for 20 hours. All plates were washed free of compound and cells were allowed to proliferate for a further 4 days in αMEM containing 5% FBS+antibiotics. Cells were fixed in trichloroacteic acid (30 min), washed and stained with sulforhodamine B (SRB, 60 min) prior to washing in acidified water. SRB was solubilised and absorption read at 450 nm to calculate cell densities. Inhibition of proliferation was calculated relative to untreated control wells.
Experimental for SKBR3 cells: as §1

In turn, `C[N+](C)(C/C=C/C(=O)Nc1ccc2ncnc(Nc3cccc(Br)c3)c2c1)Cc1ccc([N+](=O)[O-])cc1` (as salt: bromide) [Compound 17, (2E)-4-{[4-(3-bromoanilino)-6-quinazolinyl]amino}-N,N-dimethyl-N-(4-nitrobenzyl)-4-oxo-2-buten-1-ammonium bromide] returned a melting point of 178 to 181 °C.
Still for that read-out and setting: to `C[N+](C)(C/C=C/C(=O)Nc1ccc2ncnc(Nc3cccc(Br)c3)c2c1)Cc1ccccc1[N+](=O)[O-]` (as salt: bromide) [Compound 18, (2E)-4-{[4-(3-bromoanilino)-6-quinazolinyl]amino}-N,N-dimethyl-N-(2-nitrobenzyl)-4-oxo-2-buten-1-ammonium bromide] belongs 166 to 169 °C; to `Cn1cnc([N+](=O)[O-])c1C[N+](C)(C)CCCC(=O)Nc1ccc2ncnc(Nc3cccc(Br)c3)c2c1` (as salt: bromide) [Compound 27, 4-{([4-(3-bromoanilino)-6-quinazolinyl]amino}-N,N-dimethyl-N-[(1-methyl-4-nitro-1H-imidazol-5-yl)methyl]-4-oxo-1-butanaminium bromide], 177 °C (dec.).
Turning to `COc1cc2ncnc(Nc3ccc(F)c(Cl)c3)c2cc1NC(=O)/C=C/CN(C)C` [Compound 14, (2E)-N-[4-(3-chloro-4-fluoroanilino)-7-methoxy-6-quinazolinyl]-4-(dimethylamino)-2-butenamide], the melting point was 179 to 181 °C. In the data set on A431 cells (setting [3]), the pIC50 was 7.82. Also, the pIC50 with A431 cells (setting [4]) is 8.05. Further, the “A431 HCR (Hypoxic Cytotoxicity Ratio)” value with A431 cells (Table 3) came to 1.7 fold. In addition, the pIC50 in the data set on SW620 cells (setting [5]) is 5.69. Moreover, in the data set on SW620 cells (setting [6]), the pIC50 was 5.61. For the same compound, the “SW620 HCR” value in the data set on SW620 cells was determined as 0.8 fold. For the same compound, in the data set on SKBR3 cells (setting [7]), the pIC50 was 7.55. In the data set on SKBR3 cells (setting [8]), the pIC50 was 7.57. Also, in the data set on SKBR3 cells, the “SKBR3 HCR” value is recorded as 1.1 fold.
In the case of `Cn1cnc([N+](=O)[O-])c1C[N+]1(C/C=C/C(=O)Nc2ccc3ncnc(Nc4cccc(Br)c4)c3c2)CCCCC1.[Br-]` [Compound 23, 1-((2E)-4-{[4-(3-bromoanilino)-6-quinazolinyl]amino}-4-oxo-2-butenyl)-1-[(1-methyl-4-nitro-1H-imidazol-5-yl)methyl]piperidinium bromide], the melting point was 188 °C (dec.). Besides, at erbB1, the pIC50 is 5.92. Further, the “Deact. (fold reduction in cellular erbB1 inhibition relative to the parent kinase inhibitor)” value on erbB1 (Table 2, A431 cells) worked out at 27 fold. In the data set on A431 cells (setting [3]), the pIC50 is 6.17. Besides, in the data set with A431 cells (setting [4]), the pIC50 is 7.60. Also, in the data set on A431 cells (Table 3), the “A431 Deact. (fold reduction in oxic growth inhibition relative to parent kinase inhibitor)” value came to 65 fold and the “A431 HCR (Hypoxic Cytotoxicity Ratio)” value was 26.9 fold. Further, in data set [1], the “kfrag. (fragmentation rate constant upon 1-electron reduction)” value came out at 420 ± 60 s⁻¹ and the “E (1)/V (one-electron reduction potential)” value is reported as −0.427 V. Besides, the pIC50 in the data set with SW620 cells (setting [5]) was 4.00. Also, the pIC50 in the data set with SW620 cells (setting [6]) is 4.86. In the data set on SW620 cells, the “SW620 Deact.” value came to 27 fold and the “SW620 HCR” value stood at 7.3 fold. For the same compound, the pIC50 in the data set with SKBR3 cells (setting [7]) is 5.61. Besides, the negative-log IC50 (pIC50) in the data set on SKBR3 cells (setting [8]) was 7.17. In the data set on SKBR3 cells, the “SKBR3 Deact.” value is 56 fold and the “SKBR3 HCR” value was 36.1 fold.
Regarding `Cn1cnc([N+](=O)[O-])c1C[n+]1ccc(Nc2ncc3cc(-c4c(Cl)cccc4Cl)c(=O)n(C)c3n2)cc1.[Br-]` [Compound 142, 4-{[6-(2,6-dichlorophenyl)-8-methyl-7-oxo-7,8-dihydropyrido[2,3-d]pyrimidin-2-yl]amino}-1-[(1-methyl-4-nitro-1H-imidazol-5-yl)methyl]pyridinium bromide], the melting point is 252 °C (dec.). Besides, in the data set with A431 cells (setting [9]), the pIC50 was below 4.00. In the data set on A431 cells (setting [3]), the pIC50 is 3.26. Besides, the “A431 HCR” value in the data set on A431 cells (Table 7) is below 6 fold. In [1], the “E (1)/V (one-electron reduction potential)” value was −0.471 V. Besides, the pIC50 in the data set on HT29 cells (setting [10]) is 3.81. In addition, the negative-log IC50 (pIC50) in the data set with HT29 cells (setting [11]) was 3.92. In addition, the “HT29 HCR” value in the data set on HT29 cells came out at 1 fold. Also, the negative logarithm of the IC50 (pIC50) with H1975 cells (setting [12]) was 3.67. The pIC50 with H1975 cells (setting [13]) is below 4.00. In addition, in the data set with H1975 cells (Table 7), the “H1975 HCR” value was below 3 fold. In data set [2], the “Detection of MNA (methyl nitroaromatic)” value is reported as “No”, the “% Loss of prodrug” value stood at 8% and the “release of effector following 1-electron reduction” value is reported as “did not release their respective effector compounds”.
Regarding `Cn1cnc([N+](=O)[O-])c1C[N+]1(CCOc2ccc(Nc3ncc4cc(-c5c(Cl)cccc5Cl)c(=O)n(C)c4n3)cc2)CCCCC1.[Br-]` [Compound 143, 1-[2-(4-{[6-(2,6-dichlorophenyl)-8-methyl-7-oxo-7,8-dihydropyrido[2,3-d]pyrimidin-2-yl]amino}phenoxy)ethyl]-1-[(1-methyl-4-nitro-1H-imidazol-5-yl)methyl]piperidinium bromide], the melting point lay within 176 to 178 °C. Further, the pIC50 with A431 cells (setting [9]) is 6.00. For the same compound, the pIC50 in the data set with A431 cells (setting [3]) was 4.37. Also, the “A431 HCR” value with A431 cells (Table 7) was 43 fold. Also, in data set [1], the “kfrag. (fragmentation rate constant upon 1-electron reduction)” value was determined as 170 ± 20 s⁻¹ and the “E (1)/V (one-electron reduction potential)” value was −0.465 V. For the same compound, the pIC50 with HT29 cells (setting [10]) was 5.11. Also, the pIC50 with HT29 cells (setting [11]) was 5.82. Further, the “HT29 HCR” value with HT29 cells came out at 5 fold. In the data set with H1975 cells (setting [12]), the pIC50 was 4.75. Besides, the pIC50 with H1975 cells (setting [13]) was 5.70. For the same compound, the “H1975 HCR” value in the data set with H1975 cells (Table 7) was 9 fold. For the same compound, in data set [2], the “Detection of MNA (methyl nitroaromatic)” value is recorded as “Yes”, the “% Loss of prodrug” value turned out to be 69% and the “release of effector following 1-electron reduction” value was “released their respective effector compounds”.
Consider `C#Cc1cccc(Nc2ncnc3cnc(NC(=O)/C=C/CN(C)C)cc23)c1` [Compound 171, (2E)-4-(dimethylamino)-N-[4-(3-ethynylanilino)pyrido[3,4-d]pyrimidin-6-yl]-2-butenamide], for which the melting point was 163 to 166 °C. This compound also had a pIC50 on erbB1 of 8.10. Moreover, the pIC50 in the data set with SKOV3 cells (24 hour exposure oxic, read-out: Cellular Growth Inhibition IC50 SKOV3 Oxic) is 6.26. Also, the pIC50 in the data set on SKOV3 cells (first 4 hours anoxic, read-out: Cellular Growth Inhibition IC50 SKOV3 Anoxic) was 6.13. For the same compound, the “SKOV3 HCR” value with SKOV3 cells stood at 0.8 fold. In addition, the pIC50 with A431 cells (setting [9]) is 7.77. The pIC50 with A431 cells (setting [3]) is 7.57. The “A431 HCR” value with A431 cells (Table 9) was 1.7 fold. In addition, the pIC50 in the data set with H1975 cells (Table 9, 24 hour exposure oxic, read-out: Cellular Growth Inhibition IC50 H1975 Oxic) was 5.94. For the same compound, in the data set on H1975 cells (Table 9, first 4 hours anoxic, read-out: Cellular Growth Inhibition IC50 H1975 Anoxic), the pIC50 was 5.95. In addition, the “H1975 HCR” value in the data set with H1975 cells (Table 9) turned out to be 1.1 fold.

(Values after patent US9073916B2, “Prodrug forms of kinase inhibitors and their use in therapy” (AUCKLAND UNISERVICES LIMITED, priority 2009, dated 2015).)
